Experimental data taken from US20250186453A1, “COMBINATION THERAPIES COMPRISING A SOS1 INHIBITOR AND A MEK INHIBITOR” (Mirati Therapeutics, Inc., priority 2022, published 2025).

Columns and labels:
[1] = tested on: LN229 cells harboring the A72S mutation (PTPN11 A72S); test: LN229 tumor xenograft model, SOS1 inhibitor - MEK inhibitor combination; format: in vivo, nude/nude mice; details: for tumor growth inhibition: LN229 tumors, day 28, single agent, MRTX0902 50 mg/kg twice daily, VS-6766 0.3 mg/kg twice daily Monday, Wednesday, Friday; for Average Tumor Volumes of LN229 Tumor Bearing Mice: p.o., MRTX0902 50 mg/kg BID, VS-6766 0.3 mg/kg BID MWF (Q2D), mean of 5 mice
Procedure: (§1) Immunocompromised nude/nude mice are inoculated in the right hind flank with LN229 cells harboring the A72S mutation. When tumor volumes reach approximately 150 mm3 in size, the mice are divided into four groups of 5 mice each. The first group is administered vehicle only. […] The fourth group is administered the single agent dose of the SOS1 inhibitor in combination with the single agent dose of the MEK inhibitor. The treatment period was 28 days. Tumor volumes are measured using a caliper every two—three days and tumor volumes are calculated by the formula: 0.5×(Length×Width)2.
[0153]20 nude/nude mice were inoculated in the right hind limb with 5×10^6 LN229 cells. When tumor volume reached ˜150 mm3 (Study Day 0), 5 mice in each of the four groups were administered p.o. daily for 28 days: vehicle only (0.5% MC (4000 cps)/0.2% Tween80 in water), 50 mg/kg BID of the SOS1 inhibitor (R)-2-methyl-3-(1-((4-methyl-7-morpholinopyrido[3,4-d]pyridazin-1-yl)amino)ethyl)benzonitrile (MRTX0902) (0.5% MC (4000 cps)/0.2% Tween80 in water), 0.3 mg/kg BID Q2D of MEK inhibitor VS-6766 (5% DMSO, 10% HPCD in water), or 50 mg/kg BID MRTX0902 and 0.3 mg/kg BID Q2D. Tumor volumes, measured at pre-specified days, for the five mice per group were averaged and are reported for LN229 cells in Table 1 and FIG. 1.

[2] = tested on: NCI-H1435 cells harboring NF1 K615N mutation; test: NCI-H1435 tumor xenograft model, SOS1 inhibitor - MEK inhibitor combination; format: in vivo, nude/nude mice; details: for tumor growth inhibition: NCI-H1435 tumors, day 27, single agent, MRTX0902 50 mg/kg twice daily, VS-6766 0.3 mg/kg twice daily Monday, Wednesday, Friday; for Average Tumor Volumes of NCI-H1435 Tumor Bearing Mice: p.o., MRTX0902 50 mg/kg BID, VS-6766 0.3 mg/kg BID MWF (Q2D), mean of 5 mice
Procedure: as §1, with “with NCI-H1435” for “with LN229”, “harboring NF1 K615N” for “harboring the A72S”, “administered a” for “administered the”, “with a” for “with the”, “was 27” for “was 28”
20 nude/nude mice were inoculated in the right hind limb with 5×10^6 NCI-H1435 cells. When tumor volume reached ˜150 mm3 (Study Day 0), 5 mice in each of the four groups were administered p.o. daily for 27 days: vehicle only (0.5% MC (4000 cps)/0.2% Tween80 in water), 50 mg/kg BID of the SOS1 inhibitor (R)-2-methyl-3-(1-((4-methyl-7-morpholinopyrido[3,4-d]pyridazin-1-yl)amino)ethyl)benzonitrile (MRTX0902) (0.5% MC (4000 cps)/0.2% Tween80 in water), 0.3 mg/kg BID Q2D of MEK inhibitor VS-6766 (5% DMSO, 10% HPCD in water), or 50 mg/kg BID MRTX0902 and 0.3 mg/kg BID Q2D VS-6766. Tumor volumes, measured at pre-specified days, for the five mice per group were averaged and are reported for NCI-H1435 cells in Table 2 and FIG. 2.

SMILES	tumor growth inhibition [1] [%]	Average Tumor Volumes of LN229 Tumor Bearing Mice ([1]; Study Day 0 (start of dosing)) [mm^3]	Average Tumor Volumes of LN229 Tumor Bearing Mice ([1]; Study Day 4) [mm^3]	Average Tumor Volumes of LN229 Tumor Bearing Mice ([1]; Study Day 7) [mm^3]	Average Tumor Volumes of LN229 Tumor Bearing Mice ([1]; Study Day 12) [mm^3]	Average Tumor Volumes of LN229 Tumor Bearing Mice ([1]; Study Day 15) [mm^3]	Average Tumor Volumes of LN229 Tumor Bearing Mice ([1]; Study Day 18) [mm^3]	Average Tumor Volumes of LN229 Tumor Bearing Mice ([1]; Study Day 25) [mm^3]	Average Tumor Volumes of LN229 Tumor Bearing Mice ([1]; Study Day 28) [mm^3]	tumor growth inhibition [2] [%]	Average Tumor Volumes of NCI-H1435 Tumor Bearing Mice ([2]; Study Day 0 (start of dosing)) [mm^3]	Average Tumor Volumes of NCI-H1435 Tumor Bearing Mice ([2]; Study Day 3) [mm^3]	Average Tumor Volumes of NCI-H1435 Tumor Bearing Mice ([2]; Study Day 6) [mm^3]	Average Tumor Volumes of NCI-H1435 Tumor Bearing Mice ([2]; Study Day 10) [mm^3]	Average Tumor Volumes of NCI-H1435 Tumor Bearing Mice ([2]; Study Day 13) [mm^3]	Average Tumor Volumes of NCI-H1435 Tumor Bearing Mice ([2]; Study Day 17) [mm^3]	Average Tumor Volumes of NCI-H1435 Tumor Bearing Mice ([2]; Study Day 20) [mm^3]	Average Tumor Volumes of NCI-H1435 Tumor Bearing Mice ([2]; Study Day 24) [mm^3]	Average Tumor Volumes of NCI-H1435 Tumor Bearing Mice ([2]; Study Day 27) [mm^3]
Cc1c(C#N)cccc1[C@@H](C)Nc1nnc(C)c2cnc(N3CCOCC3)cc12 [MRTX0902, (R)-2-methyl-3-(1-((4-methyl-7-morpholinopyrido[3,4-d]pyridazin-1-yl)amino)ethyl)benzonitrile]	37.6	151	174	199	248	310	374	462	525	49.8	164	241	292	333	417	437	474	583	608
CNS(=O)(=O)Nc1nccc(Cc2c(C)c3ccc(Oc4ncccn4)cc3oc2=O)c1F [VS-6766, 3-[[3-fluoro-2-(methylsulfamoylamino)pyridin-4-yl]methyl]-4-methyl-7-pyrimidin-2-yloxychromen-2-one]	92.5	151	143	137	120	140	186	225	196	76.4	166	254	296	307	281	286	322	349	371
